The record followed here is US12152038B2, “Vasopressin receptor antagonists and products and methods related thereto” (Neumora Therapeutics, Inc., priority 2017, dated 2024).

In assay [1] the target is T1, human Oxytocin Receptor (hOTR) (Homo sapiens, UniProt P30559).
T1 construct: host or cells: CHEM-1 (ready-to-assay frozen cells)
T1 sequence (P30559 1-389): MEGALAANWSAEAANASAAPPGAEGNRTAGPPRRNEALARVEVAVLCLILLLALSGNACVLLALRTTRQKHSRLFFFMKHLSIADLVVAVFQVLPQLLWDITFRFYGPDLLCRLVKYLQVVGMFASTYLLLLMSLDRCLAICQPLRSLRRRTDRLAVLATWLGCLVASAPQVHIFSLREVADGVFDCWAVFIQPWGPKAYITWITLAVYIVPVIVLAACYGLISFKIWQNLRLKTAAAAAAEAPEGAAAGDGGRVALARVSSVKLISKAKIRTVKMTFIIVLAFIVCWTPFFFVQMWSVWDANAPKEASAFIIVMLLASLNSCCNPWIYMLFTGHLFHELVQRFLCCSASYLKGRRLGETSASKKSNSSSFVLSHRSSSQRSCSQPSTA
The assay can be described thus: Oxytocin receptor (OTR) antagonist assay (FLIPR calcium, CHEM-1-hOTR cells). In kind it is cell-based. The procedure: This assay was performed in CHEM-1 cells expressing the human Oxytocin Receptor (hOTR) to determine the inhibitory effect of the compounds of the invention on the human Oxytocin receptor. Oxytocin evokes an increase in intracellular calcium in CHEM-1-hOTR cells which is measured in a fluorescence assay on the FLIPR^TETRA using calcium sensitive dyes. Test compounds were assessed for their ability to affect the magnitude of the response to oxytocin, with antagonists showing a concentration-dependent reduction in the oxytocin-mediated fluorescence.
CHEM-1-hOTR ready was used to assay frozen cells (Eurofins #HTS09ORTA) which are supplied with a proprietary Media Component.
Day 1 of the assay: Cells were thawed in a 37° C. water bath and diluted with the supplied Media Component to a final volume of 10 ml. The cell suspension was centrifuged at 1000 rpm for 3 min at room temperature and the supernatant was discarded. The cell pellet was resuspended in Media Component (10.5 ml) and the cells (25 μL) were dispensed into a poly-D-lysine coated black, clear bottomed, 384-well plate. The plates were incubated overnight at 37° C., 5% CO2.
Day 2: At the start of each assay day the potency of oxytocin was assessed and an EC80 concentration was determined for subsequent compound profiling. Assays were performed using a two-step addition protocol on the FLIPR^TETRA; first addition of 5 μl of control or test compound at 10× final in assay buffer with 15 min incubation at 37° C., 5% CO2 followed by 10 μl of oxytocin at 6× final concentration in assay buffer. Changes in fluorescence were monitored for 3 min after both additions on the FLIPR^TETRA using 470-495 nm excitation and 515-575 nm emission wavelengths. The assay buffer consisted of HBSS (+Ca/+Mg) supplemented with 20 mM HEPES, and for the preparation of the oxytocin agonist only, 0.1% w/v bovine serum albumin. The assay was initiated by the removal of growth media from the cells and replaced with 45 μl of Calcium-6 dye (Molecular Devices) prepared at 1× in assay buffer. Cells were loaded with dye for 60-90 min at 37° C., 5% CO2 before initiation of the FLIPR^TETRA protocol. […] For compound profiling, test compounds were first serially diluted in DMSO (10-point curve, 1:3 dilutions) then diluted 33.3-fold in assay buffer prior to addition to the dye loaded cells on the FLIPR^TETRA. At the end of the incubation period 10 μl of oxytocin in assay buffer containing 0.1% BSA was added at the previously determined EC80 concentration.
In-plate controls for the assay included a L-368,899 concentration-response curve as the reference OTR antagonist and an oxytocin concentration-response curve to confirm the reproducibility of the EC80 used for the compound challenge.

In assay [2] the target is T2, human Arginine Vasopressin Receptor 1a (AVPR1a) (Homo sapiens, UniProt P37288).
T2 construct: expressed in transfected cells; host or cells: CHO (CHO-AVPR1a, kept under G418 selection)
T2 sequence (P37288 whole entry): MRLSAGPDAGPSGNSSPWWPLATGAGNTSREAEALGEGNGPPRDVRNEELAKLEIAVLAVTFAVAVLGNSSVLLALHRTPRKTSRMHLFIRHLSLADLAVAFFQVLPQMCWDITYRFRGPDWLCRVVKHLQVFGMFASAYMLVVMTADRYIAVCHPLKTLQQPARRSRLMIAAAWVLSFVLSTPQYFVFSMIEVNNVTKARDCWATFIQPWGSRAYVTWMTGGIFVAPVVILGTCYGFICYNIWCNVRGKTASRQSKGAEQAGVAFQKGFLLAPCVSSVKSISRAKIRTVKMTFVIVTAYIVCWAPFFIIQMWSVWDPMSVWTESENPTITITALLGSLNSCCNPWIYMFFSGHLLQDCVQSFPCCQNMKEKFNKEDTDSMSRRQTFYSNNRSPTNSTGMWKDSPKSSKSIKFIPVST
The experiment in a line: Vasopressin V1a receptor antagonist assay (FLIPR calcium, CHO-AVPR1a cells). In kind it is cell-based. In short, it runs like this: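 CHO cells expressing human AVPR1a were loaded with Calcium-6 dye and preincubated with compound for 15 min at 37° C. Cells were then challenged with AVP at its daily-determined EC80, and FLIPR fluorescence was read. Compounds were tested in duplicate as 10-point 1:3 dilutions from a top final concentration of 3 μM.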

The target of another assay is T3, V1a receptors (Rattus norvegicus, UniProt P30560).
T3 construct: Rat choroid plexus (RCP) cell lines express functional V1a receptors; endogenous in cells; host or cells: rat choroid plexus (RCP) cell line, RCP P9(18)
T3 sequence (P30560 whole entry): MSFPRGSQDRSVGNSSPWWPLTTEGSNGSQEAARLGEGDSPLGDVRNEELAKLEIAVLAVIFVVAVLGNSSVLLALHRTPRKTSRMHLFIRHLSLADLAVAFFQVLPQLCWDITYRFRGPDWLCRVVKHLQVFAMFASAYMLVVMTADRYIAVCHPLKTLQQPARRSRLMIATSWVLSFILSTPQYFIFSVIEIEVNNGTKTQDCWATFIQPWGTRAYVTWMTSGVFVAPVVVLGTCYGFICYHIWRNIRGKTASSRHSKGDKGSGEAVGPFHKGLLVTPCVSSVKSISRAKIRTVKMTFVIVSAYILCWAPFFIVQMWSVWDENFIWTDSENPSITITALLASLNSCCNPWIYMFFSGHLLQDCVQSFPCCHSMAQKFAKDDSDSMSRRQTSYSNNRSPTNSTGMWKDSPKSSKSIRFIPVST
The experiment in a line: AVP induced phospho-ERK measurement in rat choroid plexus (RCP) cells. As to conditions: RCP cells stimulated with AVP, pERK1/2 to total ERK1/2 ratio. In kind it is cell-based. The method, then: Rat choroid plexus (RCP) cell lines express functional V1a receptors measured by increased calcium concentrations in response to V1a receptor agonists (Battle et al., Biochem. Biophys. Res. Comm. 2000).
RCP P9(18) cells were seeded 30K/well, in 100 μl growth medium containing 10% FBS in polystyrene 96-well plates and incubated at 37° C., 5% CO2 and incubated overnight. The following day, the growth medium was replaced with 50 μl pre-warmed HBSS containing 20 mM HEPES and the cells were incubated at 37° C., 5% CO2 for 1.5 hrs. 1 mM AVP (Sigma V9879) was freshly prepared in distilled water in a glass vial and diluted to 3× concentrations in HBSS containing 20 mM HEPES and 0.1% BSA in glass vials and kept on ice. […] Final concentrations of AVP: 10, 100 or 1000 nM. […] Cells were lysed with 25 μl 4×CST lysis buffer containing protease and phosphatase inhibitors, PMSF and SDS and then stored at −80° C., for 48 h. The lysates were thawed, centrifuged at 2000 g for 30 min at 4° C. and 40 μl supernatants assayed for pERK1/2 (Thr202/Tyr204; Thr185/Tyr187) and total ERK1/2 using MSD kit K15107D. The MSD ECL data for the lysates were corrected for no cell blanks, then phospho-protein levels expressed as a ratio to the total ERK1/2 level. The ratios were expressed as fold-change from the vehicle-treated control at each timepoint.

The next assay deals with Male CD-1 mice. The experiment in a line: AVP induced scratching, digging and grooming behavior in mouse. In kind it is in vivo. Conditions: 100 mg/kg, po; AVP i.c.v.; 15 minutes observation. The text has this: Administration of Arginine-Vasopressin (AVP) intracerebroventricularly (i.c.v.) elicits characteristic scratching, digging and grooming behavior in mice that can be measured readily and is sensitive to blockade with vasopressin antagonists (Meisenberg, Ann N Y Acad Sci. 525:257-69, 1988; Bleickardt et. al., Psychopharmacology (Berl). 202(4):711-8, 2009).
Male CD-1 mice (Charles River Germany) weighing 22-25 g upon the study in-life were used for this study. Animals were housed in groups of 4-5 per cage in standard temperature (22±1° C.) and light-controlled environment (lights on from 7 am to 8 pm), with ad libitum access to food and water. Prior to commencing any procedures to the mice, they were allowed to habituate in the vivarium for a minimum of 7 days. Anesthesia was induced in a plexiglass chamber for 2-3 min with 5% isoflurane and maintained through a snout mask with 1-2% isoflurane thereafter. A homeothermic blanket system with a rectal probe was used to monitor and maintain the animal's body temperature at 37.0° C.±1.5° C. during the operation. Anesthetized mice were placed in a stereotaxic apparatus and skin between the ears shaved and disinfected with povidone-iodine solution (Betadine). A 10-μl Hamilton syringe with 28-gauge needle was used for the i.c.v. injections. All animals receive identical AVP injections (3.689 μM) or sterile saline (0.9% sodium chloride solution) into the right lateral ventricle at the following coordinates: AP=+0.5 mm; ML=+1.0 mm; DV=−2.5 mm (approximately from bregma). The actual coordinates were calculated by the distance from the point in midline between the eyes and no skin incision was made. […]
Mice were observed and video-recorded for 15 minutes following AVP/saline administration and behaviors were measured (in seconds) and a cumulative time was calculated. […] Using this assay, balovaptan (100 and 300 mg/kg, po), JNJ-17308616 (30, 100 mg/kg, po) and Compound No. 1-83B (100, 300, 500 mg/kg, po) were evaluated for antagonist activity to AVP-induced scratching behaviors.

In the case of `CC1COc2cc(Cl)ccc2N1C(=O)N1CC2(C1)CN(c1ncccc1F)C2` (single isomer, unassigned) [1-57-B], the values for the concentration for half-maximal inhibition (IC50) in assay [1] and in assay [2] were less than 100 nM and no less than 1000 nM, respectively.

As to `CN1Cc2cc(Cl)ccc2-n2c(nnc2[C@H]2CC[C@H](Oc3ccccn3)CC2)C1` [balovaptan, reference compound], the IC50 (as a rule, the concentration at which inhibition is half-maximal) at V1a receptors (first study) turned out to be 10.9 nM; at V1a receptors (second study), 13.6 nM. Further, the “antagonist activity to AVP-induced scratching behaviors” value with Male CD-1 mice was “effective”.

In the case of `Cc1cnc(N2CC3(CN(C(=O)N4c5ccc(Cl)cc5OCC4C)C3)C2)nc1` (single isomer, unassigned) [20-13-A], the IC50 in assay [1] and in assay [2] was no less than 1000 nM throughout.
